Tests used:
Assay type in all cases: cell-based
COS7 cells = assay: Renilla luciferase (phRL-CMV) control expression in transfected COS7 cells; conditions: 33.3 uM and 100 uM SP600125, COS7
From the text: COS7 cells were transiently transfected with MISRH, BRE-Luciferase and phRL-CMV. […] Control cells were transfected with a control plasmid (EGFP-N1 plasmid) instead of the receptor plasmid to keep the total DNA transfected constant. The results shown are the fold-induction over vehicle treated cells and normalized to phRL-CMV expression to correct for variations in cell number and transfection efficiency. […] The results represent the mean values from three independent experiments performed in triplicates (Error bars represent SEM, *p<0.05, **p<0.001).
COS7 cells were plated at a density of 5000 cells/well in 96-well plates for secondary screens. The day after plating cells were transfected with rat MISRII receptor or EGFP-N1 (Clontech, Mountain View Calif.) together with BRE firefly luciferase reporter construct and phRL-CMV using TransIT-LT1 transfection reagent (Mirus Bio Corporation, Madison Wis.). […] Results were obtained using the Dual Luciferase reporter assay according to the manufacturer's instructions (Promega). Plates were read in a Wallac Victor2 luminometer (PerkinElmer, Wellesley Mass.).

[1] = biological target: T1, BMP type II receptor (BMPRII) (Homo sapiens, UniProt Q13873); assay: BRE-luciferase reporter assay in COS7 cells transfected with BMP type II receptor; conditions: cotreatment with BMP2 and 10 μM SP600125, BMPRII-transfected COS7
T1 construct: expressed in transfected cells; host or cells: COS7
T1 sequence (Q13873 27-1038): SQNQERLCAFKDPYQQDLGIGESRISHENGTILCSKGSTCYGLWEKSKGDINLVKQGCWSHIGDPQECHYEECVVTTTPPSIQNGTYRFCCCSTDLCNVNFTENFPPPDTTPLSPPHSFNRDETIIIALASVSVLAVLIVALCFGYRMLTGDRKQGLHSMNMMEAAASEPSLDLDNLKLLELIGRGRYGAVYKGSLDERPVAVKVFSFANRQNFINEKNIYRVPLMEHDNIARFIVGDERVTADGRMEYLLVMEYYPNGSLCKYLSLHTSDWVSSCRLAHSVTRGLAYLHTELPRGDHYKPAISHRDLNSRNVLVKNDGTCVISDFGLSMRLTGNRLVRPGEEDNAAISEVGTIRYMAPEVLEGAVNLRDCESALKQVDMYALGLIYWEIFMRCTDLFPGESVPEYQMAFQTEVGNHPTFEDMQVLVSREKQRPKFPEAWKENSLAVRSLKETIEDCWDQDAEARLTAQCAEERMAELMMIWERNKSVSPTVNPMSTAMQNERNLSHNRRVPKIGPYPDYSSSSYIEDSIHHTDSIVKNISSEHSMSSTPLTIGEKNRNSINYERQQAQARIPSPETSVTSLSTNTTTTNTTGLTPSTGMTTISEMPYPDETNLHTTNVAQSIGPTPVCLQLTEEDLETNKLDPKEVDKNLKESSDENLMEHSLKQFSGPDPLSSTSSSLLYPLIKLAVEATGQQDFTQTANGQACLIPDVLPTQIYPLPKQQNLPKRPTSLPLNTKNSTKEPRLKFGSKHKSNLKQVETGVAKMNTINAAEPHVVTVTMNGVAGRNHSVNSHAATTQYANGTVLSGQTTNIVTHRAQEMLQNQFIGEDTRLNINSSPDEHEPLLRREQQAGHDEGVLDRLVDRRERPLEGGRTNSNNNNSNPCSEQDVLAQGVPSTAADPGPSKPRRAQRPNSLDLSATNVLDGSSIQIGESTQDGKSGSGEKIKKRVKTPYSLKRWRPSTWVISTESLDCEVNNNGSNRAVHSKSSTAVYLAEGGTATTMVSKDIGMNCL

[2] = biological target: T2, type II receptor for TGFβ (Homo sapiens, UniProt P37173); assay: CAGA-promoter luciferase reporter in COS7 cells co-transfected with TGFβ type II receptor; conditions: alone or in combination with the receptor-ligand, COS7 (data not shown)
T2 construct: expressed in transfected cells; host or cells: COS7
T2 sequence (P37173 23-567): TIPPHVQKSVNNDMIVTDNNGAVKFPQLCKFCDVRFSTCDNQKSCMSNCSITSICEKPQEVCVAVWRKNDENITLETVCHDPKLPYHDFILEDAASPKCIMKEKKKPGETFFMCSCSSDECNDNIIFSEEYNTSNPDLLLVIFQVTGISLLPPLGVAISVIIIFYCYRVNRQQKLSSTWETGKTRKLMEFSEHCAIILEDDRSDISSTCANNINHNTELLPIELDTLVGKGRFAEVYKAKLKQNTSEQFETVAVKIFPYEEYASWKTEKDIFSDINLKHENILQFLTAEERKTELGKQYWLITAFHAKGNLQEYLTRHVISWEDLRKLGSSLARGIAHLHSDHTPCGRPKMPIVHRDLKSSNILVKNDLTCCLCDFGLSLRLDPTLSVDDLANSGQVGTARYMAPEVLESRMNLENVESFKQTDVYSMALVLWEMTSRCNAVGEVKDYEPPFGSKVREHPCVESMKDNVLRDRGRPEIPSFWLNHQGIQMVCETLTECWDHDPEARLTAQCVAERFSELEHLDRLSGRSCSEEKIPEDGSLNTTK

MOVCAR7 cells = assay: MTT proliferation assay, MOVCAR7 cells; conditions: Mus musculus, 168 h; MOVCAR cells, 7 days, MTT; read-out: IC50, inhibition of cell proliferation
Protocol: Cells were plated in 96-well plates and treated the day after. Seven days after plating the cell survival was measured using 3-(4,5-dimethylthiazol-2-yl)-2,5-diphenyltetrazolium bromide substrate and measuring the absorbance at 550 nm.
(Connolly, 2003). The 4306 cells were provided by Dr. Daniela Dinulescu, Brigham and Women's (Boston) (30). Cells were plated at a density of 1000 cells/well in 96-well plates and treated 24 h later. The cell proliferation was measured after 7 days by registering the absorbance at 550 nm. Paclitaxel was manufactured by Ivax Pharmaceuticals and obtained from the MGH pharmacy.
The cells were treated for 7 days and the proliferation was measured by spectrophotometry. To exclude cytotoxic effects on the cells unrelated to MIS signal transduction, we used untransfected COS7 cells as a negative control. […] Paclitaxel is used in treatment of a wide range of tumors, but the side effects can be debilitating (Pieretti-Vanmarcke, 2006a, Pieretti-Vanmarcke, 2006b).

SMILES: O=C1c2ccccc2-c2n[nH]c3cccc1c23 [SP600125, anthra[1,9-cd]pyrazol-6(2H)-one]
- inhibition of Renilla luciferase (suggesting toxic effects to the cells) (COS7 cells): approximately 60%
- decrease of luciferase activity compared to BMP2 alone [1]: 25%
- effect on CAGA-luciferase reporter [2]: did not have any significant effect
- IC50 (MOVCAR7 cells): 4.5 µM

Reference: patent US9260759B2, “Pyrazoloanthrone and derivatives thereof for the treatment of cancers expressing MISRII” (The General Hospital Corporation, priority 2007, dated 2016)
